Structures can show the parent of a compound that is named as a salt.
Legend:
[1] = tested on: Trx9 cells (MCF-7 clones expressing thioredoxin); experiment: XTT cytotoxicity assay; assay type: cell-based, human; details: percent control of untreated cells
Method: (§1) XTT assay. Cytotoxicity was estimated using XTT based in vitro toxicology assay kit, (Sigma Chemical Co.). This assay is based on the metabolic capacity of viable cells; the mitochondrial dehydrogenases convert XTT yielding orange formazan crystal soluble in aqueous media that is estimated spectrophotmetrically at 450 nm and a reference wavelength at 690. The assay was performed 48 hr post treatment; cells were washed and XTT added in media free of serum and phenol red, incubated for 2-4 hr and analyzed in Spectramax 190 plate reader.

[2] = tested on: vector cells (vector-only MCF-7); experiment: XTT cytotoxicity assay; assay type: cell-based, human; details: percent control of untreated cells
Method: as §1

[3] = cited from earlier work
[4] = tested on: Trx9 cells (MCF-7 clones expressing thioredoxin); experiment: TUNEL assay; assay type: cell-based, human; details: Trx9 compared to vector cells; daunomycin 1 μM, 16 h
Description: TUNEL assay. Apoptotic cells were detected using In Situ Cell Death detection, POD kit (Roche Molecular Biochemicals, Indianapolis, Ind.). Apoptotic DNA strand breaks were identified by labeling 3′-OH termini with fluorescein-dUTP using Terminal deoxy Transferase as per manufacturer's protocol. For this assay cells were allowed to adhere overnight in chambered glass slides (Nunc) to a final density of 25,000 cells per well. Followed by treatment with the appropriate concentration of drugs the media was removed and washed twice with PBS containing 1% BSA and the cells fixed in 4% paraformaldehyde for 30 min and washed with PBS containing 1% BSA. The cells were then permeabilized with 0.1% Triton X-100 in 0.1% sodium citrate for 2 min on ice and washed twice with PBS containing 1% BSA. The labeling reaction was performed using FITC labeled dUTP along with other nucleotides by terminal deoxynucleotidyl transferase for 60 mins in dark at 37° C. in humidified chamber. The cells were washed with PBS-1% BSA, mounted onto a slide, and the incorporated fluorescein-dUTP was analyzed using Nikon laser confocal microscope.

A549 cells = experiment: ROS detection by DCF-DA fluorescence; assay type: cell-based, human; details: daunomycin only (1 μM)
Method: In situ detection of superoxide by fluorescent probe DiCarboxyFluorescein-DiAcetate (DCF-DA). […] Cells were pre-incubated with 20 μM DCF-DA (Sigma, St. Louis, Mo.) in 20 mM Hepes in Phosphate Buffered Saline (PBS) containing bovine serum albumin (BSA, 5 mg/ml) at 37° C. for 30 min followed by washing with PBS buffer, and the drug was added and observed for 10-15 min in a Nikon laser confocal microscope using laser beam wavelength 488 nm analyzed by Ultraview software (Perkin-Elmer).

[5] = tested on: Trx9 cells (MCF-7 clones expressing thioredoxin); experiment: Cell proliferation assay by BrdU ELISA; assay type: cell-based, human; details: daunomycin 1 μM, 16 h
Method: (§2) Cell proliferation assay. Cell proliferation assay by BrdU ELISA kit was purchased from Roche Molecular Biochemicals (Indianapolis, Ind.). For this assay cells were seeded to a final density of 5000 per well in 96 well plates and allowed to attach overnight, […] BrdU for 4-6 hr, and detected using Tetramethylbenzedine as substrate with Anti-BrdU POD at 370 nm and reference wavelength 492 nm in Spectramax 190 plate reader.

[6] = tested on: vector cells (vector-only MCF-7); experiment: Cell proliferation assay by BrdU ELISA; assay type: cell-based, human; details: daunomycin 1 μM, 16 h
Method: as §2

[7] = target: T1, E. coli thioredoxin reductase-thioredoxin system (Escherichia coli, UniProt P0A9P4); experiment: Superoxide detection by cytochrome c reduction assay with thioredoxin system; assay type: biochemical
T1 construct: purchased American Diagnostica Inc (thioredoxin reductase); Promega Inc (thioredoxin)
T1 sequence (P0A9P4 2-321): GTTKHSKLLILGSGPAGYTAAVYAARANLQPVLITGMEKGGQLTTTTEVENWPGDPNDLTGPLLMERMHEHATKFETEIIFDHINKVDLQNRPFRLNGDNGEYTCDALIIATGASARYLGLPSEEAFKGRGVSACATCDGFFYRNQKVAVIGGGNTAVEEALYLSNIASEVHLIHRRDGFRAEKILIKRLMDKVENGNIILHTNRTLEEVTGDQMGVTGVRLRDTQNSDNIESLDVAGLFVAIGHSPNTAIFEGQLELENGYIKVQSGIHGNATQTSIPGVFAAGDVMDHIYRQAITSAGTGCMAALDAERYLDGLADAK
Method: Superoxide detection by cytochrome c reduction assay. Superoxide (O2—) generated in the process of redox-cycling was detected by SOD inhibitable rate of ferricytochrome c reduction (Das et al., 2000). The reaction mixture contained 0.05 M potassium phosphate buffer (pH 7.78), 1 mM EDTA, 10 μM cytochrome c and 200 μM NADPH. […] The rate of […] of cytochrome c was measured at 550 nm for 0-15 minutes using Shimadzu UV-1601PC in kinetic mode. Reaction blank contained potassium phosphate buffer, cytochrome c and NADPH with or without SOD, and controls included 0.35-0.7 μg TR and /or Trx in buffer. All reactions were performed in triplicate.

[8] = tested on: Trx9 cells (MCF-7 clones expressing thioredoxin); experiment: Flow cytometry, apoptosis as sub-G1 peak (propidium iodide); assay type: cell-based, human; details: daunomycin 1 μM, 16 h
Method: (§3) Flow cytometry. […] The cells were washed again with PBS containing 1% FBS and resuspended in 500 μl of PBS followed by fixing in 7.5 ml of ice-cold ethanol 70% added dropwise while vortexing and stored in −20° C. overnight. After two washes with PBS containing 1% FBS and resuspended in same buffer and stained with Propidium Iodide 10 μg/ml (Sigma, St. Louis, Mo.) in the presence of RNase 250 μg/ml at 37° C. for 30 min in dark. Stained cells were analyzed using Epics Elite ESP Coulter, using argon laser at 488 nm wavelength. Flow cytometric results were analyzed and apoptosis was defined as ‘sub G1’ peak (Gutierrez, 2000) using Multicycle software.

[9] = tested on: vector cells (vector-only MCF-7); experiment: as above; assay type: cell-based, human; details: daunomycin 1 μM, 16 h
Method: as §3

[10] = tested on: Trx9 cells (MCF-7 clones expressing thioredoxin); experiment: Superoxide production in cell lysate by SOD-inhibitable reduction of ferricytochrome c; assay type: biochemical, human; details: Trx9 compared to vector-transfected cells; 10 μM drug
Method: Determination of superoxide production by reduction of ferricytochrome c. Superoxide production was measured as superoxide dismutase (SOD) inhibitable reduction of ferricytochrome c (Azzi et al. 1975). Cells were sonicated in potassium phosphate buffer (0.05M, pH 7.8 plus 1 mM EDTA), centrifuged and the supernatant was used for the assay. To determine the superoxide generation in the cell lysate, the supernatant was incubated with 10 μM drug and 10 μM cytochrome c, with or without 1U SOD to determine SOD inhibitable rate. The specificity of thioredoxin mediated superoxide generation in the supernatant was detected by pre-incubation of cell lysates with anti-human thioredoxin antibody (American Diagnostica, Greenwich, Conn.) for 15 min. All reactions were performed in triplicate. The reduction of ferricytochrome c was measured both in kinetic and end point mode with path check on for 1 hr duration at a wavelength of 550 nm using a Spectramax 190 plate reader (Molecular Devices). Total protein was quantified using Bradford protein assay (Biorad) and the superoxide generation was determined per milligram of protein in the extracts.

[11] = tested on: Trx9 cells (MCF-7 clones expressing thioredoxin); experiment: Colony formation assay (clonogenic survival); assay type: cell-based, human; details: 0.1 μM daunomycin, end of 14 days
Method: (§4) Colony formation assay. For determination of clonogenic survival, the cells were seeded to a final density of 1×10^6 in 100 mm dishes, allowed to attach overnight, and the following day treated with the appropriate concentration of the drug for 48 hr. The cells were trypsinized, counted and seeded to final density of 25,000 viable cells in 100 mm dishes and allowed to grow for 14 days followed by washing and staining with crystal violet.

[12] = tested on: vector cells (vector-only MCF-7); experiment: Colony formation assay (clonogenic survival); assay type: cell-based, human; details: 0.1 μM daunomycin, end of 14 days
Method: as §4

[13] = tested on: Trx9 cells (MCF-7 clones expressing thioredoxin); experiment: Cytochrome c release (cytosolic extract, western blotting); assay type: cell-based, human; details: Trx9 compared to vector-only cells; daunomycin 1 μM, 16 h
Method: Preparation of cytosolic extract by sub cellular fractionation. Cytosolic preparation was done as described earlier (Yang et al., 1997). Briefly, cells were harvested by centrifugation (600×g) and washed once with ice cold PBS for 10 min at 4° C. The cell pellets were resuspended in five volumes of fractionation buffer (250 mM sucrose containing 20 mM HEPES-KOH, 10 mM KCl, 1.5 mM each of sodium-EDTA and sodium- EGTA, 1 mM MgCl2, 1 mM dithiothreitol, 0.1 mM PMSF and cocktail of protease inhibitors) and incubated on ice for 30 min. Cells were then homogenized using a dounce homogenizer with type B pestle and centrifuged twice at 800×g for 10 min at 4° C. The supernatant was centrifuged at 10,000×g for 15 min at 4° C., and the resulting supernatant was then transferred to fresh tube and centrifuged at 100,000×g […] for 1 hr at 4° C. The final supernatant obtained in this centrifugation was designated as cytosolic extract and was stored in −70° C. for further analysis.
Western blotting. Equal amounts of protein were resolved on 10% SDS-polyacrylamide gel electrophoresis, and transferred to nitrocellulose membrane (Hybond-ECL, Amersham Pharmacia Biotech) immunoblotted with anti-p53 or anti-p53 phospho ser-15 (Cell Signaling Technology, Beverly, Mass.) and visualized using Lumiglo system with antirabbit conjugated HRP. […]

In the case of COc1cccc2c1C(=O)c1c(O)c3c(c(O)c1C2=O)C[C@@](O)(C(C)=O)C[C@@H]3O[C@H]1C[C@H](N)[C@H](O)[C@H](C)O1 [daunomycin, 5,12-Naphthacenedione, (8S-cis)-8-acetyl-10-[(3-amino-2,3,6-trideoxy-a-L-lyxo-hexanopyranosyl)oxy]-7,8,9,10-tetrahydro-6,8,11-trihydroxy-10-methoxy-, hydrochloride], the “percentage of cell death (XTT)” value [1] is listed as 48%, the “percentage of cell death (XTT)” value [2] is listed as 16% and the “secreted into the bile” value ([3]; in vivo) is listed as about 40%. For the same compound, the elimination half-life ([3]; intravenous) was “about 19 hr”, the absorption ([3]; oral) was “poor” and the TUNEL-positive cells [4] was “higher number of TUNEL positive Trx9 cells”. The “ROS generation (DCF-DA)” value (A549 cells) was “ROS generation was increased”, the “level of BrdU incorporated” value [5] was 60% and the “level of BrdU incorporated” value [6] was 76%. The “levels of O2— generated” value ([7]; drug 10 μM with thioredoxin reductase alone) was “significantly higher levels of O2—”, the “SOD inhibitable rate of ferricytochrome c reduction” value ([7]; drug alone, 10 μM) was “did not show significant level” and the “percentage of apoptotic cells (sub-G1)” value [8] was 23%. For the same compound, the “percentage of apoptotic cells (sub-G1)” value [9] was 6%, the “O2— production” value [10] was “significantly higher level of O2—” and the clonogenic survival [11] was “failed to propagate into colonies”. For the same compound, the clonogenic survival [12] was “able to propagate into several colonies” and the cytochrome c release [13] was “increased cytochrome c release”.
